Patent US20250179061A1 (SIRONAX LTD., priority 2022, published 2025)

Test system: HT-29 cells
Test: HT-29 necroptosis cell viability assay (TNF-α/SMAC mimetic/zVAD-FMK, CellTiter-Glo)
Format: cell-based
Conditions: Homo sapiens, HT-29, HT-29 necroptosis cell viability assay; class symbols for IC50; read-out: Activity
Procedure, shortened: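 HT-29 cells (~5,000/well, overnight) in FBS-free McCoy's 5A with TNF-α 10 ng/ml, SMAC mimetic 6 μM and zVAD-FMK 10 μM plus 10-point 1:3 compound titration, 20 h at 37°C. ATP measured by CellTiter-Glo luminescence; IC50 as geometric mean of duplicates.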

SMILES	IC50 [nM]
Cc1csc(Cn2cnn(-c3ccc(Oc4sc(C(C)(C)O)nc4C)c(F)c3)c2=O)n1 [Example 578, 2-(3-fluoro-4-((2-(2-hydroxypropan-2-yl)-4-methylthiazol-5-yl)oxy)phenyl)-4-((4-methylthiazol-2-yl)methyl)-2,4-dihydro-3H-1,2,4-triazole-3-one]	100 to 1000
Cc1nc(C(C)(C)O)sc1Oc1ccc(-n2ncn(Cc3c(F)cccc3C#N)c2=O)cc1F [Example 579, 3-fluoro-2-((1-(3-fluoro-4-((2-(2-hydroxypropan-2-yl)-4-methylthiazol-5-yl)oxy)phenyl)-5-oxo-1,5-dihydro-4H-1,2,4-triazol-4-yl)methyl)benzonitrile]	< 100
Cc1nc(C2(O)CC2)sc1Oc1ccc(-n2ncn(Cc3c(F)cccc3F)c2=O)cc1 [Example 580, 4-(2,6-difluorobenzyl)-2-(4-((2-(1-hydroxycyclopropyl)-4-methylthiazol-5-yl)oxy)phenyl)-2,4-dihydro-3H-1,2,4-triazol-3-one]	< 100
CCC(O)(CC)c1nc(C)c(Oc2ccc(-n3ncn(Cc4c(F)cccc4F)c3=O)cc2F)s1 [Example 581, 4-(2,6-difluorobenzyl)-2-(3-fluoro-4-((2-(3-hydroxypentan-3-yl)-4-methylthiazol-5-yl)oxy)phenyl)-2,4-dihydro-3H-1,2,4-triazol-3-one]	< 100
Cc1nc(C2(O)CC2)sc1Oc1ccc(-n2ncn(Cc3c(F)cccc3F)c2=O)cc1F [Example 582, 4-(2,6-difluorobenzyl)-2-(3-fluoro-4-((2-(1-hydroxycyclopropyl)-4-methylthiazol-5-yl)oxy)phenyl)-2,4-dihydro-3H-1,2,4-triazol-3-one]	< 100
Cc1nc(C(C)(C)O)sc1Oc1ccc(-n2ncn(Cc3c(F)cccc3F)c2=O)cc1Cl [Example 583, 2-(3-chloro-4-((2-(2-hydroxypropan-2-yl)-4-methylthiazol-5-yl)oxy)phenyl)-4-(2,6-difluorobenzyl)-2,4-dihydro-3H-1,2,4-triazol-3-one]	< 100
Cc1nc(C(C)(C)O)sc1Oc1ccc(-n2ncn(Cc3ccccc3C#N)c2=O)cc1F [Example 584, 2-((1-(3-fluoro-4-((2-(2-hydroxypropan-2-yl)-4-methylthiazol-5-yl)oxy)phenyl)-5-oxo-1,5-dihydro-4H-1,2,4-triazol-4-yl)methyl)benzonitrile]	100 to 1000
Cc1nc(C2(O)COC2)sc1Oc1ccc(-n2ncn(Cc3c(F)cccc3F)c2=O)cc1F [Example 585, 4-(2,6-difluorobenzyl)-2-(3-fluoro-4-((2-(3-hydroxyoxetan-3-yl)-4-methylthiazol-5-yl)oxy)phenyl)-2,4-dihydro-3H-1,2,4-triazol-3-one]	< 100
Cc1nc(C2(O)CCC2)sc1Oc1ccc(-n2ncn(Cc3c(F)cccc3F)c2=O)cc1F [Example 586, 4-(2,6-difluorobenzyl)-2-(3-fluoro-4-((2-(1-hydroxycyclobutyl)-4-methylthiazol-5-yl)oxy)phenyl)-2,4-dihydro-3H-1,2,4-triazol-3-one]	< 100
Cc1nc(C(=O)N2C[C@H](N)[C@@H]2C)sc1Oc1ccc(-n2ncn(Cc3ccccc3F)c2=O)cc1F [Example 587, 2-(4-((2-((2S,3S)-3-amino-2-methylazetidine-1-carbonyl)-4-methylthiazol-5-yl)oxy)-3-fluorophenyl)-4-(2-fluorobenzyl)-2,4-dihydro-3H-1,2,4-triazol-3-one]	< 100
Cc1nc(C(=O)N2C[C@H](O)[C@@H]2C)sc1Oc1ccc(-n2ncn(Cc3c(F)cccc3F)c2=O)cc1F [Example 588, 4-(2,6-difluorobenzyl)-2-(3-fluoro-4-((2-((2S,3S)-3-hydroxy-2-methylazetidine-1-carbonyl)-4-methylthiazol-yl)oxy)phenyl)-2,4-dihydro-3H-1,2,4-triazol-3-one]	< 100
CNC(=O)c1nc(C)c(Oc2ccc(-n3ncn(Cc4ncccc4Cl)c3=O)cc2F)s1 [Example 589, 5-(4-(4-((3-chloropyridin-2-yl)methyl)-5-oxo-4,5-dihydro-1H-1,2,4-triazol-1-yl)-2-fluorophenoxy)-N,4-dimethylthiazole-2-carboxamide]	< 100
Cc1nc(C(N)=O)sc1Oc1ccc(-n2ncn(Cc3ncccc3Cl)c2=O)cc1F [Example 590, 5-(4-(4-((3-chloropyridin-2-yl)methyl)-5-oxo-4,5-dihydro-1H-1,2,4-triazol-1-yl)-2-fluorophenoxy)-4-methylthiazole-2-carboxamide]	< 100
Cc1nc(C(=O)N2CC(C)(N)C2)sc1Oc1ccc(-n2ncn(Cc3ccccc3F)c2=O)cc1F [Example 591, 2-(4-((2-(3-amino-3-methylazetidine-1-carbonyl)-4-methylthiazol-5-yl)oxy)-3-fluorophenyl)-4-(2-fluorobenzyl)-2,4-dihydro-3H-1,2,4-triazol-3-one]	< 100
Cc1nc(C(=O)N2CC(C#N)C2)sc1Oc1ccc(-n2ncn(Cc3ccccc3F)c2=O)cc1F [Example 592, 1-(5-(2-fluoro-4-(4-(2-fluorobenzyl)-5-oxo-4,5-dihydro-1H-1,2,4-triazol-1-yl)phenoxy)-4-methylthiazole-2-carbonyl)azetidine-3-carbonitrile]	< 100
Cc1nc(C(=O)N2CC(O)C2)sc1Oc1ccc(-n2ncn(Cc3ccccc3F)c2=O)cc1F [Example 593, 2-(3-fluoro-4-((2-(3-hydroxyazetidine-1-carbonyl)-4-methylthiazol-5-yl)oxy)phenyl)-4-(2-fluorobenzyl)-2,4-dihydro-3H-1,2,4-triazol-3-one]	< 100
Cc1nc(C(=O)NO)sc1Oc1ccc(-n2ncn(Cc3ccccc3F)c2=O)cc1F [Example 594, 5-(2-fluoro-4-(4-(2-fluorobenzyl)-5-oxo-4,5-dihydro-1H-1,2,4-triazol-1-yl)phenoxy)-N-hydroxy-4-methylthiazole-2-carboxamide]	100 to 1000
CNC(=O)c1nc(C)c(Oc2ccc(-n3ncn(Cc4ccccc4F)c3=O)cc2F)s1 [Example 595, 5-(2-fluoro-4-(4-(2-fluorobenzyl)-5-oxo-4,5-dihydro-1H-1,2,4-triazol-1-yl)phenoxy)-N,4-dimethylthiazole-2-carboxamide]	< 100
Cc1nc(C(=O)NN)sc1Oc1ccc(-n2ncn(Cc3ccccc3F)c2=O)cc1F [Example 596, 5-(2-fluoro-4-(4-(2-fluorobenzyl)-5-oxo-4,5-dihydro-1H-1,2,4-triazol-1-yl)phenoxy)-4-methylthiazole-2-carbohydrazide]	< 100
Cc1nc(C(=O)N2CC(C)(O)C2)sc1Oc1ccc(-n2ncn(Cc3c(F)cccc3F)c2=O)cc1F [Example 597, 4-(2,6-difluorobenzyl)-2-(3-fluoro-4-((2-(3-hydroxy-3-methylazetidine-1-carbonyl)-4-methylthiazol-5-yl)oxy)phenyl)-2,4-dihydro-3H-1,2,4-triazol-3-one]	< 100
Cc1nc(C(=O)N2CC(NC(=O)OC(C)(C)C)C2)sc1Oc1ccc(-n2ncn(Cc3ccccc3F)c2=O)cc1F [Example 598, tert-butyl (1-(5-(2-fluoro-4-(4-(2-fluorobenzyl)-5-oxo-4,5-dihydro-1H-1,2,4-triazol-1-yl)phenoxy)-4-methylthiazole-2-carbonyl)azetidin-3-yl)carbamate]	< 100
CNC(=O)c1nc(C)c(Oc2ccc(-n3ncn(Cc4cnccc4Cl)c3=O)cc2F)s1 [Example 599, 5-(4-(4-((4-chloropyridin-3-yl)methyl)-5-oxo-4,5-dihydro-1H-1,2,4-triazol-1-yl)-2-fluorophenoxy)-N,4-dimethylthiazole-2-carboxamide]	< 100
Cc1nc(C(=O)N2CC(N)C2)sc1Oc1ccc(-n2ncn(Cc3ccccc3F)c2=O)cc1F [Example 600, 2-(4-((2-(3-aminoazetidine-1-carbonyl)-4-methylthiazol-5-yl)oxy)-3-fluorophenyl)-4-(2-fluorobenzyl)-2,4-dihydro-3H-1,2,4-triazol-3-one]	< 100
Cc1nc(C(=O)NC2COC2)sc1Oc1ccc(-n2ncn(Cc3ccccc3F)c2=O)cc1F [Example 603, 5-(2-fluoro-4-(4-(2-fluorobenzyl)-5-oxo-4,5-dihydro-1H-1,2,4-triazol-1-yl)phenoxy)-4-methyl-N-(oxetan-3-yl)thiazole-2-carboxamide]	< 100
Cc1nc(C(=O)NCC2COC2)sc1Oc1ccc(-n2ncn(Cc3ccccc3F)c2=O)cc1F [Example 604, 5-(2-fluoro-4-(4-(2-fluorobenzyl)-5-oxo-4,5-dihydro-1H-1,2,4-triazol-1-yl)phenoxy)-4-methyl-N-(oxetan-3-ylmethyl)thiazole-2-carboxamide]	< 100
Cc1nc(C(=O)N2CC3(COC3)C2)sc1Oc1ccc(-n2ncn(Cc3ccccc3F)c2=O)cc1F [Example 605, 2-(3-fluoro-4-((4-methyl-2-(2-oxa-6-azaspiro[3.3]heptane-6-carbonyl)thiazol-5-yl)oxy)phenyl)-4-(2-fluorobenzyl)-2,4-dihydro-3H-1,2,4-triazol-3-one]	< 100
Cc1nc(C(N)=O)sc1Oc1ccc(-n2ncn(Cc3ncccc3F)c2=O)cc1F [Example 606, 5-(2-fluoro-4-(4-((3-fluoropyridin-2-yl)methyl)-5-oxo-4,5-dihydro-1H-1,2,4-triazol-1-yl)phenoxy)-4-methylthiazole-2-carboxamide]	< 100
Cc1nc(C(=O)NCC2COC2)sc1Oc1ccc(-n2ncn(Cc3ncccc3F)c2=O)cc1F [Example 607, 5-(2-fluoro-4-(4-((3-fluoropyridin-2-yl)methyl)-5-oxo-4,5-dihydro-1H-1,2,4-triazol-1-yl)phenoxy)-4-methyl-N-(oxetan-3-ylmethyl)thiazole-2-carboxamide]	< 100
Cc1nc(C(=O)N2CC(C)(O)C2)sc1Oc1ccc(-n2ncn(Cc3ncccc3F)c2=O)cc1F [Example 608, 2-(3-fluoro-4-((2-(3-hydroxy-3-methylazetidine-1-carbonyl)-4-methylthiazol-5-yl)oxy)phenyl)-4-((3-fluoropyridin-2-yl)methyl)-2,4-dihydro-3H-1,2,4-triazol-3-one]	< 100
